According to US10258587B2, “Branched chain fatty acids for prevention or treatment of gastrointestinal disorders” (priority 2007, dated 2019):

What was measured:
Caco-2 cells = experiment: Caco-2 BCFA uptake experiment (18 h incubation, GC/MS of cell lipids); assay type: in vitro ADME, human; details: BCFA-treated Caco-2 cells
Protocol: Twenty-four hours prior to treatment with BCFA, DMEM was replaced with MEM (Minimum Essential Medium). […] Two others served as controls. Cells were incubated for 18 hours, after which media was removed and the cells were thoroughly and carefully washed three times. Cell lipids were extracted and FAME prepared for GC/MS.

Bacillus megaterium = details: LL-37 mixed in a ratio of 3:1 with vernix lipids; cited from earlier work

CC(C)CCCCCCCCCCCCCCCCC(=O)O [iso-20:0, iso-eicosanoic acid]
incorporation of BCFA into monoacylglycerols (MAG) (Caco-2 cells; MAG fraction): favoring
incorporation of BCFA into phospholipids (PL) (Caco-2 cells; PL fraction): selection against

LL-37: antimicrobial vernix peptide (LLGDFFRKSKEKIGKEFKRIVQRIKDFLRNLVPRTES; Antibacterial peptide LL-37; UniProt P49913 134-170, looked up)
growth of Bacillus megaterium, peptide mixed with vernix lipids (Bacillus megaterium): further growth inhibition
